Measured values as given in patent publication US9346812B2, “Substituted pyrrolopyrimidine compounds, compositions thereof, and methods of treatment therewith” (Signal Pharmaceutical LLC, priority 2013, dated 2016).
pIC50: −log10 of the molar value. Like-named read-outs stand apart in the source and are kept apart here.

System: CAL51 cell proliferation
Assay: Cell Titer Glo Proliferation Assay (CAL51)
Format: cell-based, human
Conditions: CAL51 cell proliferation, 72 h, Cell Titer Glo luminescence, read-out: Act. Level
Summary of the method: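 CAL51 triple-negative breast cancer cells in DMEM or RPMI with 10% FBS were treated after overnight culture with serially diluted compound at 0.2% final DMSO. After 72 h, viability was read as CellTiter-Glo luminescence.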

Row | SMILES | pIC50 (Homo sapiens, CAL-51) | pIC50
1 | COc1cc(C(=O)N(CCO)C2CC2)ccc1Nc1nc(OC2CCCC2)c2c(-c3ccc4nc(C)oc4c3)c[nH]c2n1 [Example 251, 4-(4-(cyclopentyloxy)-5-(2-methylbenzo[d]oxazol-6-yl)-7H-pyrrolo[2,3-d]pyrimidin-2-ylamino)-N-cyclopropyl-N-(2-hydroxyethyl)-3-methoxybenzamide] | 6.40 to 7.00 | 
2 | COc1cc(C(=O)NC2CCOCC2)ccc1Nc1nc(OC2CCCC2)c2c(-c3ccc4nc(C)oc4c3)c[nH]c2n1 [Example 252, 4-(4-(cyclopentyloxy)-5-(2-methylbenzo[d]oxazol-6-yl)-7H-pyrrolo[2,3-d]pyrimidin-2-ylamino)-3-methoxy-N-(tetrahydro-2H-pyran-4-yl)benzamide] | 6.40 to 7.00 | 
3 | COc1cc(C(=O)N[C@@H]2CCC[C@@H]2O)ccc1Nc1nc(OC2CCCC2)c2c(-c3ccc4nc(C)oc4c3)c[nH]c2n1 [Example 253, 4-(4-(cyclopentyloxy)-5-(2-methylbenzo[d]oxazol-6-yl)-7H-pyrrolo[2,3-d]pyrimidin-2-ylamino)-N-((1R,2S)-2-hydroxycyclopentyl)-3-methoxybenzamide] | 6.40 to 7.00 | 
4 | COc1cc(C(=O)NC[C@@H]2CCCO2)ccc1Nc1nc(OC2CCCC2)c2c(-c3ccc4nc(C)oc4c3)c[nH]c2n1 [Example 254, (S)-4-(4-(cyclopentyloxy)-5-(2-methylbenzo[d]oxazol-6-yl)-7H-pyrrolo[2,3-d]pyrimidin-2-ylamino)-3-methoxy-N-((tetrahydrofuran-2-yl)methyl) benzamide] | 6.40 to 7.00 | 
5 | COc1cc(C(=O)NC2COC2)ccc1Nc1nc(OC2CCCC2)c2c(-c3ccc4nc(C)oc4c3)c[nH]c2n1 [Example 255, 4-(4-(cyclopentyloxy)-5-(2-methylbenzo[d]oxazol-6-yl)-7H-pyrrolo[2,3-d]pyrimidin-2-ylamino)-3-methoxy-N-(oxetan-3-yl)benzamide] | 6.40 to 7.00 | 
6 | COc1cc(C(=O)NCCF)ccc1Nc1nc(OC2CCCC2)c2c(-c3ccc4nc(C)oc4c3)c[nH]c2n1 [Example 256, 4-(4-(cyclopentyloxy)-5-(2-methylbenzo[d]oxazol-6-yl)-7H-pyrrolo[2,3-d]pyrimidin-2-ylamino)-N-(2-fluoroethyl)-3-methoxybenzamide] | 6.40 to 7.00 | 
7 | COc1cc(C(=O)N(C)CCC(N)=O)ccc1Nc1nc(OC2CCCC2)c2c(-c3ccc4nc(C)oc4c3)c[nH]c2n1 [Example 257, N-(3-amino-3-oxopropyl)-4-(4-(cyclopentyloxy)-5-(2-methylbenzo[d]oxazol-6-yl)-7H-pyrrolo[2,3-d]pyrimidin-2-ylamino)-3-methoxy-N-methylbenzamide] | > 7.00 | 
8 | CNC(=O)c1ccc(-c2c[nH]c3nc(Nc4ccc(C(=O)NCCO)cc4OC)nc(OC4CCCC4)c23)cc1 [Example 258, 4-(4-(cyclopentyloxy)-5-(4-(methylcarbamoyl)phenyl)-7H-pyrrolo[2,3-d]pyrimidin-2-ylamino)-N-(2-hydroxyethyl)-3-methoxybenzamide] | > 7.00 | 
9 | COc1cc(C(=O)N2CCN(C)CC2)ccc1Nc1nc(OC2CCCC2)c2c(-c3ccc4nc(C)oc4c3)c[nH]c2n1 [Example 259, (4-(4-(cyclopentyloxy)-5-(2-methylbenzo[d]oxazol-6-yl)-7H-pyrrolo[2,3-d]pyrimidin-2-ylamino)-3-methoxyphenyl)(4-methylpiperazin-1-yl)methanone] | > 7.00 | 
10 | CNC(=O)c1ccc(Nc2nc(OC3CCCC3)c3c(-c4ccc5nonc5c4)c[nH]c3n2)c(OC)c1 [Example 260, 4-(5-(benzo[c][1,2,5]oxadiazol-5-yl)-4-(cyclopentyloxy)-7H-pyrrolo[2,3-d]pyrimidin-2-ylamino)-3-methoxy-N-methylbenzamide] | 5.00 to 6.00 | 
11 | COc1cc(S(C)(=O)=O)c(F)cc1Nc1nc(OC2CCCC2)c2c(-c3ccc4nc(C)oc4c3)c[nH]c2n1 [Example 261, 4-(cyclopentyloxy)-N-(5-fluoro-2-methoxy-4-(methylsulfonyl)phenyl)-5-(2-methylbenzo[d]oxazol-6-yl)-7H-pyrrolo[2,3-d] pyrimidin-2-amine] | 6.40 to 7.00 | 
12 | COc1cc(C(=O)N2CC2)ccc1Nc1nc(OC2CCCC2)c2c(-c3ccc4nc(C)oc4c3)c[nH]c2n1 [Example 262, aziridin-1-yl(4-(4-(cyclopentyl-oxy)-5-(2-methylbenzo[d]oxazol-6-yl)-7H-pyrrolo[2,3-d]pyrimidin-2-ylamino)-3-methoxyphenyl) methanone] | 6.40 to 7.00 | 
13 | COc1cc(C(=O)N(C)CC#N)ccc1Nc1nc(OC2CCCC2)c2c(-c3ccc4nc(C)oc4c3)c[nH]c2n1 [Example 263, N-(cyanomethyl)-4-(4-(cyclo-pentyloxy)-5-(2-methylbenzo[d]oxazol-6-yl)-7H-pyrrolo[2,3-d]pyrimidin-2-ylamino)-3-methoxy-N-methylbenzamide] | > 7.00 | 
14 | COc1cc(C(=O)N[C@H]2CCC[C@H]2O)ccc1Nc1nc(OC2CCCC2)c2c(-c3ccc4nc(C)oc4c3)c[nH]c2n1 [Example 264, 4-(4-(cyclopentyloxy)-5-(2-methylbenzo[d]oxazol-6-yl)-7H-pyrrolo[2,3-d]pyrimidin-2-ylamino)-N-((1S,2R)-2-hydroxycyclopentyl)-3-methoxy-benzamide] | 6.40 to 7.00 | 
15 | COc1cc(C(=O)N[C@H]2CCC[C@@H]2O)ccc1Nc1nc(OC2CCCC2)c2c(-c3ccc4nc(C)oc4c3)c[nH]c2n1 [Example 265, 4-(4-(cyclopentyloxy)-5-(2-methylbenzo[d]oxazol-6-yl)-7H-pyrrolo[2,3-d]pyrimidin-2-ylamino)-N-((1S,2S)-2-hydroxy-cyclopentyl)-3-methoxybenzamide] | 6.40 to 7.00 | 
16 | COc1cc(C(=O)N[C@@H]2CCC[C@H]2O)ccc1Nc1nc(OC2CCCC2)c2c(-c3ccc4nc(C)oc4c3)c[nH]c2n1 [Example 266, 4-(4-(cyclopentyloxy)-5-(2-methylbenzo[d]oxazol-6-yl)-7H-pyrrolo[2,3-d]pyrimidin-2-ylamino)-N-((1R,2R)-2-hydroxycyclopentyl)-3-methoxybenzamide] | 6.40 to 7.00 | 
17 | COc1cc(C(=O)N[C@H]2CCOC2)ccc1Nc1nc(OC2CCCC2)c2c(-c3ccc4nc(C)oc4c3)c[nH]c2n1 [Example 267, (S)-4-(4-(cyclopentyloxy)-5-(2-methylbenzo[d]oxazol-6-yl)-7H-pyrrolo[2,3-d]pyrimidin-2-ylamino)-3-methoxy-N-(tetrahydrofuran-3-yl)benzamide] | 6.40 to 7.00 | 
18 | COc1cc(C(=O)N(C)CC(N)=O)ccc1Nc1nc(OC2CCCC2)c2c(-c3ccc4nc(C)oc4c3)c[nH]c2n1 [Example 268, N-(2-amino-2-oxoethyl)-4-(4-(cyclopentyloxy)-5-(2-methylbenzo[d]oxazol-6-yl)-7H-pyrrolo[2,3-d]pyrimidin-2-ylamino)-3-methoxy-N-methylbenzamide] | > 7.00 | 
19 | CNC(=O)c1ccc(Nc2nc(OC3CCOCC3)c3c(-c4ccnnc4)c[nH]c3n2)c(OC)c1 [Example 269, 3-methoxy-N-methyl-4-(5-(pyridazin-4-yl)-4-(tetrahydro-2H-pyran-4-yloxy)-7H-pyrrolo[2,3-d]pyrimidin-2-ylamino)benzamide] | 6.00 to 6.40 | 
20 | CNC(=O)c1ccc(Nc2nc(OC3CCOCC3)c3c(-c4ccncn4)c[nH]c3n2)c(OC)c1 [Example 270, 3-methoxy-N-methyl-4-(5-(pyrimidin-4-yl)-4-(tetrahydro-2H-pyran-4-yloxy)-7H-pyrrolo[2,3-d]pyrimidin-2-ylamino)benzamide] | 6.40 to 7.00 | 
21 | COc1cc(C(=O)N(C)CC2(C)COC2)ccc1Nc1nc(OC2CCCC2)c2c(-c3ccc4nc(C)oc4c3)c[nH]c2n1 [Example 271, 4-(4-(cyclopentyloxy)-5-(2-methylbenzo[d]oxazol-6-yl)-7H-pyrrolo[2,3-d]pyrimidin-2-ylamino)-3-methoxy-N-methyl-N-((3-methyloxetan-3-yl)methyl)benzamide] | > 7.00 | 
22 | COc1cc(C(=O)N(C)C2COC2)ccc1Nc1nc(OC2CCCC2)c2c(-c3ccc4nc(C)oc4c3)c[nH]c2n1 [Example 272, 4-(4-(cyclopentyloxy)-5-(2-methylbenzo[d]oxazol-6-yl)-7H-pyrrolo[2,3-d]pyrimidin-2-ylamino)-3-methoxy-N-methyl-N-(oxetan-3-yl)benzamide] | > 7.00 | 
23 | COc1cc(C(=O)NC2CCCOC2)ccc1Nc1nc(OC2CCCC2)c2c(-c3ccc4nc(C)oc4c3)c[nH]c2n1 (stereo not shown) [Example 273, 4-(4-(cyclopentyloxy)-5-(2-methylbenzo[d]oxazol-6-yl)-7H-pyrrolo[2,3-d]pyrimidin-2-yl-amino)-3-methoxy-N-(tetrahydro-2H-pyran-3-yl)benzamide] | > 7.00 | 
24 | COc1cc(C(=O)NC2CCCOC2)ccc1Nc1nc(OC2CCCC2)c2c(-c3ccc4nc(C)oc4c3)c[nH]c2n1 (stereo not shown) [Example 274, 4-(4-(cyclopentyloxy)-5-(2-methylbenzo[d]oxazol-6-yl)-7H-pyrrolo[2,3-d]pyrimidin-2-ylamino)-3-methoxy-N-(tetrahydro-2H-pyran-3-yl) benzamide] |  | > 7.00
25 | COc1cc(C(=O)N2CCC(OC)CC2)ccc1Nc1nc(OC2CCCC2)c2c(-c3ccc4nc(C)oc4c3)c[nH]c2n1 [Example 275, (4-(4-(cyclopentyloxy)-5-(2-methylbenzo[d]oxazol-6-yl)-7H-pyrrolo[2,3-d]pyrimidin-2-ylamino)-3-methoxyphenyl)(4-methoxypiperidin-1-yl)methanone] | > 7.00 | 
26 | CC[C@H](C)Oc1nc(Nc2ccc(C(=O)NC)cc2OC)nc2[nH]cc(-c3cnn(C)c3)c12 [Example 276, (S)-4-(4-sec-butoxy-5-(1-methyl-1H-pyrazol-4-yl)-7H-pyrrolo[2,3-d]pyrimidin-2-ylamino)-3-methoxy-N-methylbenzamide] | > 7.00 | 
27 | COc1cc(C#N)ccc1Nc1nc(OC2CCCC2)c2c(-c3ccc4nc(C)oc4c3)c[nH]c2n1 [Example 277, 4-(4-(cyclopentyloxy)-5-(2-methylbenzo[d]oxazol-6-yl)-7H-pyrrolo[2,3-d]pyrimidin-2-ylamino)-3-methoxybenzonitrile] | 6.40 to 7.00 | 
28 | CNC(=O)c1ccc(Nc2nc(OC3CCCC3)c3c(-c4ccc5cnn(C)c5c4)c[nH]c3n2)c(OC)c1 [Example 278, 4-(4-(cyclopentyloxy)-5-(1-methyl-1H-indazol-6-yl)-7H-pyrrolo[2,3-d]pyrimidin-2-ylamino)-3-methoxy-N-methylbenzamide] | 6.00 to 6.40 | 
